Test results taken from patent US9446039B2, “Aminoheteroaryl compounds as MTH1 inhibitors” (CEMM—FORSCHUNGSZENTRUM FÜR MOLEKULARE MEDIZIN GMBH, priority 2012, dated 2016).

Experiments:
Format in all cases: binding
[1] = biological target: T1, SW480 colon carcinoma cells lysate proteins (Homo sapiens, UniProt P52209); conditions: PreyGene PGD
T1 sequence (P52209 1-483): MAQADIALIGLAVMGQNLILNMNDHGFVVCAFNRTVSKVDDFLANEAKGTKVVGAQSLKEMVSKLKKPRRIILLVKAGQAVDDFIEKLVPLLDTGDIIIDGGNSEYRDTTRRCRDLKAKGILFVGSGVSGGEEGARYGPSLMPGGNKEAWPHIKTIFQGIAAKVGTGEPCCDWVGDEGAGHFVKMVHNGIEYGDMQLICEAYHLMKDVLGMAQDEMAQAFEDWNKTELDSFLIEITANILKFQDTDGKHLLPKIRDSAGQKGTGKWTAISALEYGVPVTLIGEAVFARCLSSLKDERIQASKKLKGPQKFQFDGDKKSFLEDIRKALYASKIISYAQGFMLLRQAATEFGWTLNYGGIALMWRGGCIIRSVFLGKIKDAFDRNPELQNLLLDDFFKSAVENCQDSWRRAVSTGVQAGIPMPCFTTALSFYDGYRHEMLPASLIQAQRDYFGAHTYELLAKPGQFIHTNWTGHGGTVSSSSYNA

[2] = biological target: T2, SW480 colon carcinoma cells lysate proteins (Homo sapiens, UniProt Q7RTS7); conditions: PreyGene KRT74; SW480 cells
T2 sequence (Q7RTS7 1-529): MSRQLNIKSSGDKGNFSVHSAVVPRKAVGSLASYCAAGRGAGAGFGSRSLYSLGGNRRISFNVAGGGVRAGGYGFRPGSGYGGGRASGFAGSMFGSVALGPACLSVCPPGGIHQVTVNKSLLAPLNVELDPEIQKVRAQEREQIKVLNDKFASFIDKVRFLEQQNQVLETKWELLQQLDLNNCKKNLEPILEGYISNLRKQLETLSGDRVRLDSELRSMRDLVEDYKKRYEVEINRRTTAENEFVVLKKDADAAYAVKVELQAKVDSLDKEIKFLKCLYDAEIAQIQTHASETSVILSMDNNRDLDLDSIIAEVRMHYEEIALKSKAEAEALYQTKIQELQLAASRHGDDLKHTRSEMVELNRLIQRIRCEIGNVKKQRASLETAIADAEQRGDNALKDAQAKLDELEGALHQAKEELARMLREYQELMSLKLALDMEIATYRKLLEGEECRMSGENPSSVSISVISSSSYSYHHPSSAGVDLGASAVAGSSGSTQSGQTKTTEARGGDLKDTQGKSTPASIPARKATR

[3] = biological target: SW480 colon carcinoma cells lysate proteins (Homo sapiens, UniProt P27695); conditions: PreyGene APEX1
Chain of SW480 colon carcinoma cells lysate proteins (Homo sapiens, UniProt P27695) (P27695 whole entry): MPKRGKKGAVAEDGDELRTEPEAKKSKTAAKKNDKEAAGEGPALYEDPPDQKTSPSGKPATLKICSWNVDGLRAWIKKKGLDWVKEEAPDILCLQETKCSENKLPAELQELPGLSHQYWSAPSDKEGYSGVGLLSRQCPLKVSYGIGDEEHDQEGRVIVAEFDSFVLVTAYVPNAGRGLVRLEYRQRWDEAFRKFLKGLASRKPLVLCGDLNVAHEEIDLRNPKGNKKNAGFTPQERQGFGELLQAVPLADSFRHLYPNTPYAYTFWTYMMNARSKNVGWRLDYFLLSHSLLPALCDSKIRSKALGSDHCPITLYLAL

[4] = biological target: T3, SW480 colon carcinoma cells lysate proteins (Homo sapiens, UniProt Q8NC51); conditions: PreyGene SERBP1; SW480 cells
T3 sequence (Q8NC51 1-408): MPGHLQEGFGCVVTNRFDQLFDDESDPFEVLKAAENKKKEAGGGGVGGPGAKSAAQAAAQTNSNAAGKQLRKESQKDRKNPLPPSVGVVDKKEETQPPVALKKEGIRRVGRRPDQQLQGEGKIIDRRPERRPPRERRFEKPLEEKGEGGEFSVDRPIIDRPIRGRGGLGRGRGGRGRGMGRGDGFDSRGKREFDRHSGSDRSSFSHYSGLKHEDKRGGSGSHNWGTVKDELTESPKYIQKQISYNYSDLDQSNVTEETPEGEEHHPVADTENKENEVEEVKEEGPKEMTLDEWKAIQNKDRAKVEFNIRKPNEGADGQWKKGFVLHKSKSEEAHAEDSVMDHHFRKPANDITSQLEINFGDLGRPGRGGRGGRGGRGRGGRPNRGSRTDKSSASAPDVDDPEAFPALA

[5] = biological target: SW480 colon carcinoma cells lysate proteins (Homo sapiens, UniProt P38646); conditions: PreyGene HSPA9
Chain of SW480 colon carcinoma cells lysate proteins (Homo sapiens, UniProt P38646) (P38646 47-679): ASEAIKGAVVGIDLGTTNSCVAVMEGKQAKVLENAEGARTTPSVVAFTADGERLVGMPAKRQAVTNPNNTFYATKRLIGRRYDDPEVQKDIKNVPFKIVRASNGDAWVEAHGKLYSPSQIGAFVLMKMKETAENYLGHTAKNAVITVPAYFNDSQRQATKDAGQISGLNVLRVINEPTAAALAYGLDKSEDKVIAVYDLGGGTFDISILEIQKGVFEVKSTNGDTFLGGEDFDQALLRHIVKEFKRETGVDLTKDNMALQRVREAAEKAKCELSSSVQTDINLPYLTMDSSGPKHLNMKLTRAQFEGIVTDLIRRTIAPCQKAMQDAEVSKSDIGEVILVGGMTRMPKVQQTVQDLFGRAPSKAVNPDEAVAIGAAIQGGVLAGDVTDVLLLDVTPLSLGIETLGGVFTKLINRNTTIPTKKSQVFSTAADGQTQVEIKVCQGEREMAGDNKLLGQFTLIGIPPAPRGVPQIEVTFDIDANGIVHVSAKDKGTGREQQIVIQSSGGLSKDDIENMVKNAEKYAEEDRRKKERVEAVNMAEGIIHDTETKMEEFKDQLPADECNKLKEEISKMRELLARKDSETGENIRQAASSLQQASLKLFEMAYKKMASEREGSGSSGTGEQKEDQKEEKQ

[6] = biological target: T4, SW480 colon carcinoma cells lysate proteins (Homo sapiens, UniProt Q15293); conditions: PreyGene RCN1
T4 sequence (Q15293 30-331): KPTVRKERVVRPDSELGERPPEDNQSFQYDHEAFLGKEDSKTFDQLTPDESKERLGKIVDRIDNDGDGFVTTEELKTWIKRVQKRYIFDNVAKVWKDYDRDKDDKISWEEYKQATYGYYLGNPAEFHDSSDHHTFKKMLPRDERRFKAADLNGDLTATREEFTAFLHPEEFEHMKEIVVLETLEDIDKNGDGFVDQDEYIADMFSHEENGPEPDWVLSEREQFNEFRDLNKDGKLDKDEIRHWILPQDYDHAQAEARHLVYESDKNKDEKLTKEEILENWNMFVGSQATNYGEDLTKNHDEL

C[C@H](Oc1cc(-c2cnn(C3CCNCC3)c2)cnc1N)c1c(Cl)ccc(F)c1Cl [(5)-crizotinib]
AvgP [1]: 0.3262
SC.Exp. 1-1 [1]: 4
SC.Exp. 1-2 [1]: 2
SC.Exp. 2-1 [1]: 0
SC.Exp. 2-2 [1]: 0
Sum (SC.Exp.) [1]: 6
AvgP [2]: 0
SC.Exp. 1-1 [2]: 1
SC.Exp. 1-2 [2]: 1
SC.Exp. 2-1 [2]: 0
SC.Exp. 2-2 [2]: 0
SC.Exp. Sum [2]: 2
AvgP [3]: 0.1792
SC.Exp. 1-1 [3]: 2
SC.Exp. 1-2 [3]: 0
SC.Exp. 2-1 [3]: 0
SC.Exp. 2-2 [3]: 0
Sum (SC.Exp.) [3]: 2
AvgP [4]: 0
SC.Exp. 1-1 [4]: 8
SC.Exp. 1-2 [4]: 10
SC.Exp. 2-1 [4]: 5
SC.Exp. 2-2 [4]: 6
SC.Exp. Sum [4]: 29
AvgP [5]: 0.3567
SC.Exp. 1-1 [5]: 2
SC.Exp. 1-2 [5]: 3
SC.Exp. 2-1 [5]: 0
SC.Exp. 2-2 [5]: 0
Sum (SC.Exp.) [5]: 5
AvgP [6]: 0.4191
SC.Exp. 1-1 [6]: 4
SC.Exp. 1-2 [6]: 4
SC.Exp. 2-1 [6]: 0
SC.Exp. 2-2 [6]: 0
Sum (SC.Exp.) [6]: 8
